Patent US9464326B2, “Total and phosphorylated IL-1 receptor-associated kinase-1 and IL-1 receptor-associated kinase-4 as a biomarker for cancer progression and chemotherapy resistance” (University of Maryland, Baltimore, priority 2012, dated 2016)

Legend:
patient T-ALL samples = assay: SA-β-gal activity in patient T-ALL samples from treated NSG mice; format: in vivo; settings: p<0.05, FIG. 15C
Protocol: Analysis of senescence-associated β-galactosidase (SA-β-gal) activity was performed using the 96-Well Cellular Senescence Assay Kit (Cell Biolabs, San Diego, Calif.) as per the manufacturer's protocol. In brief, cells were washed with PBS, lysed with cell lysis buffer, and incubated at 37° C. with SA-β-gal substrate for 1 hour. A quantitative Cellular Senescence Assay Kit (SA-β-gal, Fluorometric) (Cell Biolabs, San Diego, Calif.) was used for more quantitative measurement of SA-β-gal activity by flow cytometry. Briefly, control and treated CCRF-CEM cells were incubated with 1× cell pretreatment solution in culture medium for 2 hrs, and the fluorogenic substrate was then directly added into the culture. After 4 hrs, the cells were washed and analyzed by flow cytometry.
CCRF-CEM (2×10^6) cells were injected intravenously (i.v.) into female NOD.Cg-Prkdc^scid Il2rg^tm1WJl/SzJ IL2RG (NSG) mice (Jackson Laboratories, Bar Harbor, Me.). […] In some experiments mice were injected i.v. with TLR1-TLR2 ligand (2.5 μg) two days after injecting cells. […] The numbers of T-ALL cells in the bone marrow, spleen, liver, and in circulation were determined by staining cells with anti-human CD7 and/or CD5. […]

G361 melanoma cells = assay: Western blot of IRAK phosphorylation in G361; format: cell-based, human; settings: Pam3CysK4 2.5 μg/ml or flagellin 100 ng/ml, 48 hours, FIG. 22B
Protocol: FIG. 22. Effects of TLR stimulation and cytokines on IRAK phosphorylation in melanoma cells. (A) A375 cells were cultured in the presence of anti-IL-18, anti-CXCL-1, (R&D Systems), anti-IL-1 (BioLegend), or mouse IgG (Sigma-Aldrich) all at 10 μg/ml. Forty-eight hours later the levels of the indicated proteins were determined by western blot. (B) A375 cells, which express p-IRAK-1 and p-IRAK-4, and G361 melanoma cells, which express very low levels of p-IRAK-1 (and express TLR5) were cultured in the presence of TLR1-TLR2 agonist (Pam3CysK4; 2.5 μg/ml) or TLR5 (flagellin; 100 ng/ml; InVivogen). Forty-eight hours later total protein was collected and the levels of the indicated proteins were examined by western blot.
Total cell extracts were prepared from melanoma cells. […] Melanoma tissue arrays were purchased from US Biomax, Inc (Rockville, Md.). For immunohistochemical staining samples were stained with mouse monoclonal anti-human phosphor-IRAK.-4 antibody (Abnova; dilution, 3.5 μg/ml) or normal mouse serum. Tissue histology sections (5-μm-thick) were deparaffinized, hydrated, heated in boiling 10 mmol/L sodium citrate (pH 6.0), for antigen retrieval, for 30 min and washed in Tris buffer. Peroxide blocking was done with 3% […] in methanol at room temperature for 15 min, followed by 10% fetal bovine serum in TBS-t for 30 min at room temperature. Primary antibody incubation was done overnight at 4° C. Secondary antibody incubation with horse anti-mouse (1:200; Vector Laboratories, Burlingame, Calif.) was done for 1 hr, followed by application of diaminobenzidine chromogen for 5 min. The slides were then counterstained with hematoxylin and topped with a coverslip. IHC specimens were analyzed using “quick score” system in which the intensity of the immunohistochemical reaction was scored by multiplying the intensity 1 (weak), 2 (moderate), and 3 (strong) and the proportion of cells staining positively 0 (<10%), 1 (10-25%), 2 (26-50%), 3 (51-75%) or 4 (>75%).

Hut-78 = assay: Proliferation (3H-thymidine) of Hut-78; format: cell-based, human; settings: 3H-thymidine uptake, 72 h
Description: CCRF-CEM, CEM/C1, CEM/C2, CEM-C7, Jurkat, Loucy, Molt-4, HSB-2, SUP-T1, Hut 78, HH, Hut 102, MO, and H9 T-leukemia and T-lymphoma cell lines were purchased from the American Type Culture Collection (Manassas, Va., USA). All of the cell lines were initially expanded and cryopreserved within one month of receipt. Cells were typically used for 6 months at which time a fresh vial of cryopreserved cells was used. Total T cells from healthy donors were isolated via negative selection followed by positive selection using a CD3+ selection kit (Invitrogen, Carlsbad, Calif.). T cells were isolated from patients with T-ALL bone marrow or peripheral blood samples containing more than 70% leukemia cells using a CD2+ isolation kit (STEMCELL Technologies, Vancouver, Canada). All tissues were collected under institutional IRB-approved protocols and all participants gave written informed assent/consent. For in vitro experiments, T-ALL cells were cultured in AIM-V medium supplemented with 20% human AB serum in the presence of recombinant human stem cell factor (50 ng/mL; Amgen, Thousand Oaks, Calif.), insulin (20 nM; Sigma-Aldrich, St Louis, Mo., USA) and IL-7 (50 ng/mL; R&D Systems, Minneapolis, Minn., USA). […]
Cells were cultured in a 96-well plate (Corning Costar, Corning, N.Y., USA) with various concentrations of TLR ligands 1-9, starting at 10 μg/ml, in a final volume of 200 ul. […] After this time point, cells were harvested with a Packard Filter-Mate-96 cell harvester (Perkin Elmer, Waltham, Mass., USA) and counted on Packard Top Count-NXT (Perkin Elmer, Waltham, Mass., USA). Results were expressed as average counts per minute (cpm). […] Forty-eight hours later, proliferation (±SD) was determined by ^3H-thymidine incorporation. Alternatively, apoptosis was measured by flow cytometry after staining cells with Annexin-V (BD Pharmingen, San Diego, Calif., USA) and propidium iodide (Sigma). Cell number was counted under microscopy by staining cells with trypan blue. […]

SupT1 = assay: Proliferation (3H-thymidine) of SupT1; format: cell-based, human
Description: CCRF-CEM, CEM/C1, CEM/C2, CEM-C7, Jurkat, Loucy, Molt-4, HSB-2, SUP-T1, Hut 78, HH, Hut 102, MO, and H9 T-leukemia and T-lymphoma cell lines were purchased from the American Type Culture Collection (Manassas, Va., USA). All of the cell lines were initially expanded and cryopreserved within one month of receipt. Cells were typically used for 6 months at which time a fresh vial of cryopreserved cells was used. Total T cells from healthy donors were isolated via negative selection followed by positive selection using a CD3+ selection kit (Invitrogen, Carlsbad, Calif.). T cells were isolated from patients with T-ALL bone marrow or peripheral blood samples containing more than 70% leukemia cells using a CD2+ isolation kit (STEMCELL Technologies, Vancouver, Canada). All tissues were collected under institutional IRB-approved protocols and all participants gave written informed assent/consent. For in vitro experiments, T-ALL cells were cultured in AIM-V medium supplemented with 20% human AB serum in the presence of recombinant human stem cell factor (50 ng/mL; Amgen, Thousand Oaks, Calif.), insulin (20 nM; Sigma-Aldrich, St Louis, Mo., USA) and IL-7 (50 ng/mL; R&D Systems, Minneapolis, Minn., USA). In other experiments, protein lysate was collected using the Full Moon Biosystems (Sunnyvale, Calif., USA) buffer prior to protein examination by western blot or protein array.
Cells were cultured in a 96-well plate (Corning Costar, Corning, N.Y., USA) with various concentrations of TLR ligands 1-9, starting at 10 μg/ml, in a final volume of 200 ul. TLR ligands were diluted 2-fold. Cell lines (25-40×10^3/well) were cultured for 54 hours, whereas fresh patient-derived T-ALL cells (200×10^3/well) were cultured for 30 hours prior to adding [^3H]-thymidine for 18 hours. After this time point, cells were harvested with a Packard Filter-Mate-96 cell harvester (Perkin Elmer, Waltham, Mass., USA) and counted on Packard Top Count-NXT (Perkin Elmer, Waltham, Mass., USA). Results were expressed as average counts per minute (cpm). In some experiments CCRF-CEM cells were pre-treated with TLR1-TLR2 ligand (Pam3CysK4; 2.5 ug/ml) for 48 hrs, washed, and then cultured in the presence of varying concentrations of FBS. Forty-eight hours later, proliferation (±SD) was determined by ^3H-thymidine incorporation. Alternatively, apoptosis was measured by flow cytometry after staining cells with Annexin-V (BD Pharmingen, San Diego, Calif., USA) and propidium iodide (Sigma). Cell number was counted under microscopy by staining cells with trypan blue.
The following TLR ligands were purchased from Invivogen (San Diego, Calif., USA): tripalmitoyl-S-(bis(palmitoyloxy)propyl)-Cys-Ser-(Lys)3-Lys (TLR1-2); Poly I:C (TLR3); ultrapure S. Minnesota Lipopolysaccharide (TLR4); S. typhimurium flagellin (TLR5); FSL-1 (TLR2/6); Imiquimod (TLR7); ssRNA40/Lyovec (TLR8); CpG-ODN 2006 (TLR9).

Compound | SA-β-gal activity (patient T-ALL samples) | p-IRAK-1 or p-IRAK-4 expression levels (G361 melanoma cells) | Proliferative effects of TLR ligands (Hut-78) | Proliferative effects of TLR ligands (SupT1; SupT1, 3H-thymidine uptake, 72 h) | effect on proliferation (in words) (SupT1; SupT1 T-lymphoblastic leukemia, FIG. 1A)
O=C(Nc1nc2ccccc2n1CCN1CCOCC1)c1cccc([N+](=O)[O-])c1 [IRAK-1,-4 inhibitor] | increased SA-β-gal activity |  |  |  | 
tripalmitoyl-S-(bis(palmitoyloxy)propyl)-Cys-Ser-(Lys)3-Lys [Pam3Cysk4] |  | neither TLR-1-TLR2 agonist (Pam3CysK4), nor TLR5 (Flagellin) stimulation increased or induced | ∘ | ∘ | no effect on proliferation
